From publication PMC8386120, “Crystal Structure of Inorganic Pyrophosphatase From Schistosoma japonicum Reveals the Mechanism of Chemicals and Substrate Inhibition” (Frontiers in Cell and Developmental Biology, 2021)
Blank lines part the entries; values can stand above or below the compound they belong to.

Columns and labels:
SjPPase [1] = molecular target: T1, SjPPase (Schistosoma japonicum, UniProt Q5DE13); assay: Pi release, PiPer fluorescence phosphate assay; assay type: biochemical; parameters: homodimer; crystal residues 1-284 and 1-283; details: 1 and 2 mM MDP; PPi substrate, Mg2+, 25 C
T1 sequence (Q5DE13 1-287): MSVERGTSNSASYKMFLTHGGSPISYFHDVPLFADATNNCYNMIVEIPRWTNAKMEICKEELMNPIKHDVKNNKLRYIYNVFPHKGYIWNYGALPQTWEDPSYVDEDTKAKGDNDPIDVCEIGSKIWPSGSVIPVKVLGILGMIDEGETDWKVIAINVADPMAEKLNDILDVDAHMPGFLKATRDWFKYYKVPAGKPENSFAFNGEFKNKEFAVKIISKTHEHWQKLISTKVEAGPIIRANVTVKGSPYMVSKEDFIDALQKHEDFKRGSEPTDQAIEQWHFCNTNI

SjPPase [2] = molecular target: T1, SjPPase; details: Co2+ bound; active site, P2 site (F intermediate)
[3] = molecular target: Schistosoma japonicum soluble inorganic pyrophosphatase (recombinant SjPPase) (Schistosoma japonicum); assay: crystal structure; X-ray crystal structures of apo-SjPPase (4QMB) and of SjPPase with Pi and cobalt ions (4QLZ); space group P32, two molecules in the asymmetric unit; first crystals from 0.2 M sodium malonate, 20% PEG 3,350, later optimised; protein at 16-18 mg/ml

Compound: O=P(O)(O)CP(=O)(O)O [methylene diphosphonic acid]
inhibition (SjPPase [1]): inhibitors NaF and MDP inhibited the enzymatic activity of SjPPase

Compound: O=P(O)(O)O [orthophosphate]
X-ray crystal structure, 2.33 A (SjPPase [2]): the Pi in the SjPPase-Pi complex structure is at the P2 site

stoichiometry N [3]: 2
Compound: Schistosoma japonicum soluble inorganic pyrophosphatase (recombinant SjPPase) (enzyme)
